# Results published in PubChem BioAssay AID2060893 (Molecular Pharmacology Branch, DTP, NCI, 2025).
# Test system: K86415-001-R-J1-PDC complex spheroids, viability
# Experiment: Anticancer human tumor K86415-001-R-J1-PDC patient-derived lung adenocarcinoma cell line growth inhibition [RAS]
# Conditions: for viability, T/C: stronger effect = lower value
# Method in brief: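 Agents were tested in combination matrices in half-log decrements from a top concentration at or near clinical Cmax (10 microM if undetermined). Targets were multi-cell spheroids of tumour lines plus HUVEC and MSC stromal cells.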
# 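Further: spheroids exposed to agents for seven days before readout.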
structure (smiles),measurement,setting,value
C#Cc1c(F)ccc2cc(O)cc(-c3ncc4c(N5CC6CCC(C5)N6)nc(OCC56CCCN5CC(F)C6)nc4c3F)c12 (centres undefined),"viability, T/C",compound 0.0316 µM,101% [middle of 8 runs]
same,"viability, T/C",compound 0.1 µM,106% [middle of 8 runs]
same,"viability, T/C",compound 0.316 µM,88.2% [middle of 8 runs]
same,"viability, T/C",compound 1 µM,65.2% [middle of 8 runs]
same,"viability, T/C",compound 3.16 µM,38.2% [middle of 8 runs]
same,"viability, T/C",compound 10 µM,17.8% [middle of 8 runs]
same,IC50,"compound alone, run of 07/15/2024",1.81 µM [middle of 7 runs]
Nc1ccn(C2OC(CO)C(O)C2(F)F)c(=O)n1 (centres undefined) + C=CC(=O)N1CCN(c2nc(OCC3CCCN3C)nc3c(F)c(-c4nc(N)cc(C)c4C(F)(F)F)c(Cl)cc23)C(C)C1,IC50,"curve of first compound, second compound 0.00316 µM",< 3.16 nM
same,IC50,"curve of first compound, second compound 0.01 µM",< 3.16 nM
same,IC50,"curve of first compound, second compound 0.0316 µM",< 3.16 nM
same,IC50,"curve of first compound, second compound 0.1 µM",< 3.16 nM
same,IC50,"curve of first compound, second compound 0.316 µM",< 3.16 nM
same,IC50,"curve of first compound, second compound 1 µM",< 3.16 nM
same,"viability, T/C","second compound 0.00316 µM, first compound 0.00316 µM",18.1%
same,"viability, T/C","second compound 0.00316 µM, first compound 0.01 µM",16.6%
same,"viability, T/C","second compound 0.00316 µM, first compound 0.0316 µM",14.9%
same,"viability, T/C","second compound 0.00316 µM, first compound 0.1 µM",14.7%
same,"viability, T/C","second compound 0.00316 µM, first compound 0.316 µM",17.8%
same,"viability, T/C","second compound 0.00316 µM, first compound 1 µM",17.2%
same,"viability, T/C","second compound 0.01 µM, first compound 0.00316 µM",16.1%
same,"viability, T/C","second compound 0.01 µM, first compound 0.01 µM",12.8%
same,"viability, T/C","second compound 0.01 µM, first compound 0.0316 µM",9.45%
same,"viability, T/C","second compound 0.01 µM, first compound 0.1 µM",11.5%
same,"viability, T/C","second compound 0.01 µM, first compound 0.316 µM",9.75%
same,"viability, T/C","second compound 0.01 µM, first compound 1 µM",11.1%
same,"viability, T/C","second compound 0.0316 µM, first compound 0.00316 µM",11%
same,"viability, T/C","second compound 0.0316 µM, first compound 0.01 µM",12.7%
same,"viability, T/C","second compound 0.0316 µM, first compound 0.0316 µM",10.5%
same,"viability, T/C","second compound 0.0316 µM, first compound 0.1 µM",9.28%
same,"viability, T/C","second compound 0.0316 µM, first compound 0.316 µM",11%
same,"viability, T/C","second compound 0.0316 µM, first compound 1 µM",10.4%
same,"viability, T/C","second compound 0.1 µM, first compound 0.00316 µM",9.91%
same,"viability, T/C","second compound 0.1 µM, first compound 0.01 µM",9.83%
same,"viability, T/C","second compound 0.1 µM, first compound 0.0316 µM",9.05%
same,"viability, T/C","second compound 0.1 µM, first compound 0.1 µM",9.1%
same,"viability, T/C","second compound 0.1 µM, first compound 0.316 µM",11.7%
same,"viability, T/C","second compound 0.1 µM, first compound 1 µM",11.4%
same,"viability, T/C","second compound 0.316 µM, first compound 0.00316 µM",11%
same,"viability, T/C","second compound 0.316 µM, first compound 0.01 µM",10.5%
same,"viability, T/C","second compound 0.316 µM, first compound 0.0316 µM",11%
same,"viability, T/C","second compound 0.316 µM, first compound 0.1 µM",8.77%
same,"viability, T/C","second compound 0.316 µM, first compound 0.316 µM",11.1%
same,"viability, T/C","second compound 0.316 µM, first compound 1 µM",8.63%
same,"viability, T/C","second compound 1 µM, first compound 0.00316 µM",10.2%
same,"viability, T/C","second compound 1 µM, first compound 0.01 µM",11.9%
same,"viability, T/C","second compound 1 µM, first compound 0.0316 µM",10.3%
same,"viability, T/C","second compound 1 µM, first compound 0.1 µM",11.7%
same,"viability, T/C","second compound 1 µM, first compound 0.316 µM",11.7%
same,"viability, T/C","second compound 1 µM, first compound 1 µM",8.61%
